These are literature values, as cited in patent US9238007B2, “Method for the production of a medicament containing tadalafil” (RATIOPHARM GMBH, priority 2007, dated 2016).

Molecules are shown by their SMILES.

The conditions of the data set: according to WO 01/08687.

As for `CN1CC(=O)N2[C@H](c3ccc4c(c3)OCO4)c3[nH]c4ccccc4c3C[C@@H]2C1=O` [Tadalafil, (6R,12aR)-6-(1,3-benzodioxol-5-yl)-2-methyl-1,2,3,4,6,7,12,12a-octahydropyrazino [2,1 :6,1]pyrido[3,4-b]indole-1,4-dione], the solubility in water entry is on record as “about 2 μg/ml”.
